The values below come from patent publication US12472168B2, “Ring-fused thiazolino 2-pyridones, methods for preparation thereof and their use in the treatment and/or prevention of a disease involving gram-positive bacteria” (Quretech Bio AB, priority 2017, dated 2025).

Assay [1] concerns Streptococcus. The assay can be described thus: MIC and MBC assays. Conditions: compound alone, no antibiotic. Type of assay: cell-based. How it is done: (§1) MIC was defined by the lowest concentration of the test compound that inhibits visible growth of pathogen of interest. The optical density of the pathogen of interest culture was measured by OD600.
(§2) MBC was determined colony forming units (CFUs) enumeration by serially diluting and plating bacterial cultures on BHI plates.
(§3) Thus, no antibiotic was used in Table 2.

Assay [2] deals with E. faecalis. The assay can be described thus: MIC and MBC assays. To be noted: Enterococcus faecalis, compound alone, no antibiotic; for MIC: overnight (18 hrs). Type of assay: cell-based. How it is done: as §1, §2, §3
Assay [3] has as its system MRSA. Put plainly: Minimum Inhibitory Concentration (MIC) and Minimum Bactericidal Concentration (MBC) assays. Type of assay: cell-based, Methicillin-resistant Staphylococcus aureus. To be noted: compound alone, no antibiotic; for MIC: overnight (18 hrs). How it is done:
as §1, §2, §3

For assay [4], the system named is Strep. pyogenes. The assay can be described thus: MIC and MBC assays. To be noted: Streptococcus pyogenes, compound alone, no antibiotic. Type of assay: cell-based. The procedure:
(§4) […]. MIC was defined by the lowest concentration of the test compound that inhibits visible growth of pathogen of interest. The optical density of the pathogen of interest culture was measured by OD600.
(§5) […]. MBC was determined colony forming units (CFUs) enumeration by serially diluting and plating bacterial cultures on BHI plates.
(§6) . Thus, no antibiotic was used in Table 2.

The subject of assay [5] is Staph. aureus. The assay can be described thus: MIC and MBC assays. Type of assay: cell-based. Conditions: Staphylococcus aureus, compound alone, no antibiotic; for MIC: overnight (18 hrs). The procedure:
as §4, §5, §6

Where [6] appears, read: Staphylococcus aureus, 18 h, read-out: MIC.

≈ marks a conversion by molar mass, not a printed value. Structures can show the parent of a compound that is named as a salt. Where two headings read alike, the source gives them in different places. A value given as a limit tells only on which side of the number the result lay.

Take `CCCCCCOc1ccc(-c2sc3c(C4CC4)c(Cc4cccc5ccccc45)cc(=O)n3c2C(=O)O)cc1C` [Example 1, 5-Cyclopropyl-8-[4-(hexyloxy)-3-methyl-phenyl]-4-[(1-naphthyl)methyl]-2-oxo-7-thia-1-azabicyclo[4.3.0]nona-3,5,8-triene-9-carboxylic acid]: the figures for the minimal bactericidal concentration (MBC) in assay [1], in assay [2] and in assay [3] (Staphylococcus aureus) were 9 µM (≈ 5.09 µg/mL), 25 µM (≈ 14.1 µg/mL) and 25 µM (≈ 14.1 µg/mL), respectively. For the same compound, the minimum inhibitory concentration (MIC) was 67 µM (≈ 37.9 µg/mL) in assay [2] and 20 µM (≈ 11.3 µg/mL) in assay [3] (setting [6]).

`CCCOc1ccc(-c2sc3c(C4CC4)c(Cc4cccc5ccccc45)cc(=O)n3c2C(=O)O)cc1C` [Example 2, 5-Cyclopropyl-4-[(1-naphthyl)methyl]-2-oxo-8-(4-propoxy-3-methyl-phenyl)-7-thia-1-azabicyclo[4.3.0]nona-3,5,8-triene-9-carboxylic acid]: the MBC in assay [1] is 5 µM (≈ 2.62 µg/mL); in assay [3] (Staphylococcus aureus), not below 50 µM. The results for the MIC in assay [2] and in assay [3] (setting [6]) were 250 µM (≈ 131 µg/mL) and 27 µM (≈ 14.1 µg/mL), respectively.

With `CCCCCCCOc1ccc(-c2sc3c(C4CC4)c(Cc4cccc5ccccc45)cc(=O)n3c2C(=O)O)cc1C` [Example 3, 5-Cyclopropyl-8-[4-(heptyloxy)-3-methyl-phenyl] 4-[(1-naphthyl)methyl]-2-oxo-7-thia-1-azabicyclo[4.3.0]nona-3,5,8-triene-9-carboxylic acid], the MBC in assay [1] amounted to 50 µM (≈ 29 µg/mL); in assay [2], 100 µM (≈ 58 µg/mL). In addition, the MIC amounted to 183 µM (≈ 106 µg/mL) in assay [2] and 167 µM (≈ 96.8 µg/mL) in assay [3] (setting [6]).

For the compound `COc1ccc(-c2sc3c(C4CC4)c(Cc4cccc5ccccc45)cc(=O)n3c2C(=O)O)cc1C` [Example 4, 5-Cyclopropyl-8-(4-methoxy-3-methyl-phenyl)-4-[(1-naphthyl)methyl]-2-oxo-7-thia-1-azabicyclo[4.3.0]nona-3,5,8-triene-9-carboxylic acid], the MBC in assay [1] turned out to be 9 µM (≈ 4.46 µg/mL). In addition, the MIC in assay [2] stood at 250 µM (≈ 124 µg/mL); in assay [3] (setting [6]) it was 200 µM (≈ 99.1 µg/mL).

In the case of `CCOc1ccc(-c2sc3c(C4CC4)c(Cc4cccc5ccccc45)cc(=O)n3c2C(=O)O)cc1C` [Example 5, 5-Cyclopropyl-8-(4-ethoxy-3-methyl-phenyl)-4-[(1-naphthyl)methyl]-2-oxo-7-thia-1-azabicyclo[4.3.0]nona-3,5,8-triene-9-carboxylic acid], the MBC in assay [1] came out at 10 µM (≈ 5.1 µg/mL). Moreover, the MIC in assay [2] is 250 µM (≈ 127 µg/mL); in assay [3] (setting [6]) it was 150 µM (≈ 76.4 µg/mL).

With `CCCCCCn1cc(-c2sc3c(OC)c(Cc4cccc5ccccc45)cc(=O)n3c2C(=O)O)nn1` [Example 15, 8-(1-Hexyl-1H-1,2,3-triazol-4-yl)-5-methoxy-4-[(1-naphthyl)methyl]-2-oxo-7-thia-1-azabicyclo[4.3.0]nona-3,5,8-triene-9-carboxylic acid], the MIC in assay [3] (setting [6]) is 100 µM (≈ 51.7 µg/mL).

As for `CCCCCCn1cc(-c2sc3c(OC)c(Cc4cccc5ccccc45)cc(=O)n3c2C(=O)O)nn1` [Example 16, 8-(1-Hexyl-1H-1,2,3-triazol-4-yl)-5-methoxy-4-[(1-naphthyl)methyl]-2-oxo-7-thia-1-azabicyclo[4.3.0]nona-3,5,8-triene-9-carboxylic acid imidazole salt], the MIC in assay [3] is on record as 200/nd uM.

Regarding `COCCOc1ccc(-c2sc3c(OC)c(Cc4cccc5ccccc45)cc(=O)n3c2C(=O)O)cc1C` [Example 17, 5-Methoxy-8-[4-(2-methoxyethoxy)-3-methyl-phenyl]-4-[(1-naphthyl)methyl]-2-oxo-7-thia-1-azabicyclo[4.3.0]nona-3,5,8-triene-9-carboxylic acid], in assay [3] (setting [6]), the minimal inhibitory concentration (MIC) is more than 25 µM.

On to `COCCOc1ccc(-c2sc3c(C4CC4)c(Cc4cccc5ccccc45)cc(=O)n3c2C(=O)O)cc1C` [Example 18, 5-Cyclopropyl-8-[4-(2-methoxyethoxy)-3-methyl-phenyl]-4-[(1-naphthyl)methyl]-2-oxo-7-thia-1-azabicyclo[4.3.0]nona-3,5,8-triene-9-carboxylic acid], for which, in assay [3] (setting [6]), the MIC was more than 25 µM.

As for `C=CCOc1ccc(-c2sc3c(OC)c(Cc4cccc5ccccc45)cc(=O)n3c2C(=O)O)cc1C` [Example 21, 8-[4-(Allyloxy)-3-methyl-phenyl]-5-methoxy-4-[(1-naphthyl)methyl]-2-oxo-7-thia-1-azabicyclo[4.3.0]nona-3,5,8-triene-9-carboxylic acid], the MIC in assay [2] is more than 100 µM; in assay [3] (setting [6]), 19 µM (≈ 9.72 µg/mL).

Turning to `C#CCCCCOc1ccc(-c2sc3c(OC)c(Cc4cccc5ccccc45)cc(=O)n3c2C(=O)O)cc1C` [Example 22, 8-[4-(5-Hexynyloxy)-3-methyl-phenyl]-5-methoxy-4-[(1-naphthyl)methyl]-2-oxo-7-thia-1-azabicyclo[4.3.0]nona-3,5,8-triene-9-carboxylic acid], the results for the MIC in assay [2] and in assay [3] (setting [6]) were more than 100 µM and 6 µM (≈ 3.31 µg/mL), respectively.

Consider `COc1c(Cc2cccc3ccccc23)cc(=O)n2c(C(=O)O)c(-c3ccc(OCCC=C(C)C)c(C)c3)sc12` [Example 24, 5-Methoxy-8-[4-(4-methyl-3-pentenyloxy)-3-methyl-phenyl]-4-[(1-naphthyl)methyl]-2-oxo-7-thia-1-azabicyclo[4.3.0]nona-3,5,8-triene-9-carboxylic acid], for which the MIC is more than 100 µM in assay [2] and 45 µM (≈ 24.9 µg/mL) in assay [3] (setting [6]).

`C=CCCCCOc1ccc(-c2sc3c(OC)c(Cc4cccc5ccccc45)cc(=O)n3c2C(=O)O)cc1C` [Example 25, 8-[4-(5-Hexenyloxy)-3-methyl-phenyl]-5-methoxy-4-[(1-naphthyl)methyl]-2-oxo-7-thia-1-azabicyclo[4.3.0]nona-3,5,8-triene-9-carboxylic acid]: the figures for the MIC in assay [2] and in assay [3] (setting [6]) were more than 100 µM and 45 µM (≈ 24.9 µg/mL), respectively.

For `COc1c(Cc2cccc3ccccc23)cc(=O)n2c(C(=O)O)c(-c3ccc(OCC4CC4)c(C)c3)sc12` [Example 26, 8-[4-(Cyclopropylmethoxy)-3-methyl-phenyl]-5-methoxy-4-[(1-naphthyl)methyl]-2-oxo-7-thia-1-azabicyclo[4.3.0]nona-3,5,8-triene-9-carboxylic acid], the MIC was more than 100 µM in assay [2] and 12 µM (≈ 6.31 µg/mL) in assay [3] (setting [6]).

As to `CCCCCCOc1ccc(-c2sc3c(N)c(Cc4cccc5ccccc45)cc(=O)n3c2C(=O)O)cc1C` [Example 27, 5-Amino-8-[4-(hexyloxy)-3-methyl-phenyl]-4-[(1-naphthyl)methyl]-2-oxo-7-thia-1-azabicyclo[4.3.0]nona-3,5,8-triene-9-carboxylic acid], the MIC in assay [3] (setting [6]) stood at 25 µM (≈ 13.5 µg/mL).

Turning to `O=C(O)c1c(-c2ccccc2)sc2c(C3CC3)c(Cc3cccc4ccccc34)cc(=O)n12` [Example 29, 5-Cyclopropyl-4-[(1-naphthyl)methyl]-2-oxo-8-phenyl-7-thia-1-azabicyclo[4.3.0]nona-3,5,8-triene-9-carboxylic acid], the MBC in assay [4] is 25 µM (≈ 11.3 µg/mL); in assay [5], 200 µM (≈ 90.3 µg/mL); in assay [3] (Staphylococcus aureus) it was 200 µM (≈ 90.3 µg/mL). For the same compound, the figures for the MIC in assay [4] (overnight (18 hrs)), in assay [5] and in assay [3] (setting [6]) were 25 µM (≈ 11.3 µg/mL), 100 µM (≈ 45.2 µg/mL) and 250 µM (≈ 113 µg/mL), respectively.

On to `Cc1ccc(-c2sc3c(C4CC4)c(Cc4cccc5ccccc45)cc(=O)n3c2C(=O)O)cc1` [Example 31, 5-Cyclopropyl-4-[(1-naphthyl)methyl]-2-oxo-8-(p-tolyl)-7-thia-1-azabicyclo[4.3.0]nona-3,5,8-triene-9-carboxylic acid], for which the MBC in assay [4] was 50 µM (≈ 23.3 µg/mL); in assay [5], 100 µM (≈ 46.6 µg/mL); in assay [3] (Staphylococcus aureus) it was 100 µM (≈ 46.6 µg/mL). In addition, the MIC in assay [5] and in assay [3] (setting [6]) was 50 µM (≈ 23.3 µg/mL) throughout.

With `O=C(O)c1c(-c2ccc3[nH]ccc3c2)sc2c(C3CC3)c(Cc3cccc4ccccc34)cc(=O)n12` [Example 32, 5-Cyclopropyl-8-(1H-indol-5-yl)-4-[(1-naphthyl)methyl]-2-oxo-7-thia-1-azabicyclo[4.3.0]nona-3,5,8-triene-9-carboxylic acid], the MBC in assay [2] was more than 400 µM; in assay [4], 50 µM (≈ 24.5 µg/mL); in assay [3] (Staphylococcus aureus), more than 400 µM. The MIC in assay [3] (setting [6]) was 200 µM (≈ 98.1 µg/mL).

Turning to `O=C(O)c1c(-c2ccc3c(c2)OCCO3)sc2c(C3CC3)c(Cc3cccc4ccccc34)cc(=O)n12` [Example 33, 5-Cyclopropyl-8-(1,4-dioxa-2,3-dihydronaphth-6-yl)-4-[(1-naphthyl)methyl]-2-oxo-7-thia-1-azabicyclo[4.3.0]nona-3,5,8-triene-9-carboxylic acid], the MIC in assay [2] was more than 400 µM. The MBC in assay [4] turned out to be 20 µM (≈ 10.2 µg/mL); in assay [5], 400 µM (≈ 204 µg/mL).

As to `O=C(O)c1c(-c2ccsc2)sc2c(C3CC3)c(Cc3cccc4ccccc34)cc(=O)n12` [Example 34, 5-Cyclopropyl-4-[(1-naphthyl)methyl]-2-oxo-8-(3-thienyl)-7-thia-1-azabicyclo[4.3.0]nona-3,5,8-triene-9-carboxylic acid], the MBC came to 25 µM (≈ 11.4 µg/mL) in assay [4], 400 µM (≈ 183 µg/mL) in assay [5] and 250 µM (≈ 114 µg/mL) in assay [3] (Staphylococcus aureus).

In assay [4], `O=C(O)c1c(-c2ccco2)sc2c(C3CC3)c(Cc3cccc4ccccc34)cc(=O)n12` [Example 35, 5-Cyclopropyl-8-(2-furyl)-4-[(1-naphthyl)methyl]-2-oxo-7-thia-1-azabicyclo[4.3.0]nona-3,5,8-triene-9-carboxylic acid] gave an MBC of 50 µM (≈ 22.1 µg/mL).

Consider `O=C(O)c1c(-c2ccoc2)sc2c(C3CC3)c(Cc3cccc4ccccc34)cc(=O)n12` [Example 36, 5-Cyclopropyl-8-(3-furyl)-4-[(1-naphthyl)methyl]-2-oxo-7-thia-1-azabicyclo[4.3.0]nona-3,5,8-triene-9-carboxylic acid], for which the MBC in assay [4] was determined as 25 µM (≈ 11 µg/mL).

As usually defined, the MBC is the lowest tested concentration that kills the bacteria rather than only halting them. Read a high MBC as less potent killing. Usually MIC stands for the least concentration at which growth counts as inhibited.
